biological target: Serine/threonine-protein kinase/endoribonuclease IRE1 (Homo sapiens, UniProt O75460); experiment: Inhibition Assay: A fusion protein comprising glutathione S transferase (GST) and human IRE-1alpha (GST-IRE-1alpha) obtained from a 500 ml baculovirus-infected insect cell culture can be used to measure IRE-1alpha activity in vitro. Five ul of a reaction mixture comprising IX reaction buffer (5x reaction buffer is 100 mM Hepes pH 7.5, 250 mM KOAc, 2.5 mM MgCl2), 3 mM DTT, and 0.4% polyethylene glycol water is added to each well of 384 well plates. Twenty-five nanoliters of a 1 mM test compound solution are added to test wells. Three ul of a 128 ng/ml IRE-1alpha preparation are added to each test well and to positive control wells (final concentration 5.82 ng/well). Negative control wells contain only reaction mixture and test compound.After spinning the plates at 1200 rpm for 30 seconds, 3 ul of an IRE-1alpha human mini-XBP-1 mRNA stem-loop substrate 5'-[…]-3' (SEQ ID NO:1), labeled with the fluorescent dye Cy5 at the 5' end and Black Hole Quencher 2.
Sequence (O75460 whole entry, the tested form may be a part): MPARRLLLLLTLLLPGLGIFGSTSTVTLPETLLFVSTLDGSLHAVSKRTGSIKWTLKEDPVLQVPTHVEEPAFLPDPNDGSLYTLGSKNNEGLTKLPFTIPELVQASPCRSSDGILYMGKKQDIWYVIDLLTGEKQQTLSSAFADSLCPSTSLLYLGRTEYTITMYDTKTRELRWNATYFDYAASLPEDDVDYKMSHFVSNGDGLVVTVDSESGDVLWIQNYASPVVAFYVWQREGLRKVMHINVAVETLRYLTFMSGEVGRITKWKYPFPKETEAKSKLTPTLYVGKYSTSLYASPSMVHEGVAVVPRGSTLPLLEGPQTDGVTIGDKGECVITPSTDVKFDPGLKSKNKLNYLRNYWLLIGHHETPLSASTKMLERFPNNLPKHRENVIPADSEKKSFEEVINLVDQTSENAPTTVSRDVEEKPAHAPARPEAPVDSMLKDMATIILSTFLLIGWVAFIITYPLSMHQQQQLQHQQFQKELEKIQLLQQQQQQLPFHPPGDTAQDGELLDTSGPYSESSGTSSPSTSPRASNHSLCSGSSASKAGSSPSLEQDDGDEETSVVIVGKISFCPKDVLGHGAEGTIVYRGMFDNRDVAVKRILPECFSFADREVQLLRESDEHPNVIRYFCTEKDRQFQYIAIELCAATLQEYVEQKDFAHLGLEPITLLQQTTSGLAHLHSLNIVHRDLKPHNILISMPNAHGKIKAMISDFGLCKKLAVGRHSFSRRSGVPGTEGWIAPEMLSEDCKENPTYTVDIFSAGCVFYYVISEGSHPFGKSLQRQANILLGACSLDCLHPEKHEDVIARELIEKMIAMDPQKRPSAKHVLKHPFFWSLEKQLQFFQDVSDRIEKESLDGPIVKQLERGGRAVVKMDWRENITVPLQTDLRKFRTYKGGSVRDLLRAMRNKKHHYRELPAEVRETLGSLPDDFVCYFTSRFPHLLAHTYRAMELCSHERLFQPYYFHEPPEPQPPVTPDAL

`Cc1c(Br)c(=O)oc2c(C=O)c(O)ccc12` and `Cc1c(Br)c(=O)oc2c(C=O)c(O)c(F)cc12` cannot be ordered by IC50: under 100 nM for the first, under 1000 nM for the second.

`O=Cc1c(O)ccc2cc(-c3ccc(Br)cc3)c(=O)oc12` and `Cc1c(-c2ccc(C(=O)N3CCCC3)cc2)c(=O)oc2c(C=O)c(O)ccc12` cannot be ordered by IC50: under 100 nM for the first, under 1000 nM for the second.

`Cc1c(-c2ccc(C(=O)N3CCN(C)CC3)cc2)c(=O)oc2c(C=O)c(O)ccc12` and `Cc1c(-c2ccc(C(=O)N3CCC(C)CC3)cc2)c(=O)oc2c(C=O)c(O)ccc12` cannot be ordered by IC50: under 100 nM for the first, under 1000 nM for the second.

`CCN(CC)CCc1c(C)c2ccc(O)c(C=O)c2oc1=O` and `Cc1c(CCC(=O)N2CCOCC2)c(=O)oc2c(C=O)c(O)ccc12` cannot be ordered by IC50: under 100 nM for the first, under 100 nM for the second.

`COc1cc2c(C)c(Br)c(=O)oc2c(C=O)c1O` and `COc1cc2c(C)c(-c3ccc(C(=O)N4CCOCC4)cc3)c(=O)oc2c(C=O)c1O` cannot be ordered by IC50: under 100 nM for the first, under 1000 nM for the second.

`Cc1c(-c2cccc(C(=O)N3CCOCC3)c2)c(=O)oc2c(C=O)c(O)ccc12` and `Cc1c(-c2cccc(C(=O)N3CCCC3)c2)c(=O)oc2c(C=O)c(O)ccc12` cannot be ordered by IC50: under 100 nM for the first, under 100 nM for the second.

`Cc1c(Cc2ccccc2)c(=O)oc2c(C=O)c(O)c(O)cc12` and `Cc1cc(=O)oc2c(C=O)c(O)c(F)cc12` cannot be ordered by IC50: under 100 nM for the first, under 1000 nM for the second.

Compared with `CN1CCN(CCC(=O)N2CCc3c(ccc(O)c3C=O)C2)CC1`, `Cc1nc(N2CCc3c(ccc(O)c3C=O)C2)sc1C(=O)N1CCOCC1` is lower in IC50: over 10000 nM for the first, under 10000 nM for the second. The second is the more potent here.

`O=Cc1c(O)ccc2nc(-c3cccc(C(=O)N4CCOCC4)c3)ccc12` and `O=Cc1c(O)ccc2nc(-c3ccc(C(=O)N4CCCC4)cc3)ccc12` cannot be ordered by IC50: under 1000 nM for the first, under 100 nM for the second.

`CC1CCN(C(=O)c2ccc(-c3ccc4c(C=O)c(O)ccc4n3)cc2)CC1` and `CC1CCN(C(=O)c2ccc(-c3nc4ccc(O)c(C=O)c4s3)cc2)CC1` cannot be ordered by IC50: under 100 nM for the first, under 100 nM for the second.

`O=Cc1c(O)ccc2nc(N3CCC(NC(=O)CN4CCOCC4)C3)ccc12` (stereo not given) and `CC(=O)NC1CCN(c2ccc3c(C=O)c(O)ccc3n2)C1` (stereo not given) cannot be ordered by IC50: under 100 nM for the first, under 100 nM for the second.

`CN1CCN(C2CCN(c3nc4ccc(O)c(C=O)c4s3)C2)CC1` (stereo not given) and `CC(C)N1CCN(c2nc3ccc(O)c(C=O)c3s2)CC1` cannot be ordered by IC50: under 100 nM for the first, under 100 nM for the second.

`CN1CCN(C(=O)c2ccc(-c3nc4ccc(O)c(C=O)c4s3)s2)CC1` and `CN1CCN(C(=O)c2ccc(-c3nc4ccc(O)c(C=O)c4[nH]3)cc2)CC1` cannot be ordered by IC50: under 100 nM for the first, under 100 nM for the second.

`O=Cc1c(O)ccc2nc(-c3ccc(C(=O)O)cc3)[nH]c12` and `COC(=O)c1ccc(-c2nc3ccc(O)c(C=O)c3[nH]2)cc1` cannot be ordered by IC50: under 1000 nM for the first, under 1000 nM for the second.

`O=Cc1c(O)ccc2nc(-c3ccc(C(=O)NCCN4CCOCC4)cc3)[nH]c12` and `O=Cc1c(O)ccc2nc(-c3ccc(C(=O)N4CCOCC4)cc3)[nH]c12` cannot be ordered by IC50: under 100 nM for the first, under 100 nM for the second.
